Among the data in patent US10428083B2, “Heterocyclylmethyl-thienouracile as antagonists of the adenosine-A2B-receptor” (BAYER PHARMA AKTIENGESELLSCHAFT, priority 2015, dated 2019) are IC50 values, retold here.

In the assay the target is human adenosine A2b receptor (Homo sapiens (Human), UniProt P29275). In words: Cellular in vitro reporter gene test for A2b receptor activity (CHO-K1, CRE-luciferase, NECA stimulation). It is filed as cell-based. Particulars: recombinant CHO-K1 cell line, CRE-luciferase reporter, antagonism of EC50 concentration of NECA; in some cases means of several determinations, rounded to two significant figures; read-out: A2b receptor IC50. The method in brief: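 CHO-K1 cells with CRE-driven luciferase; antagonists co-incubated with NECA at its EC50, determined in a pre-experiment on each test day. Luciferase read by luminescence 3 h after NECA addition.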
Sequence of human adenosine A2b receptor (P29275 whole entry): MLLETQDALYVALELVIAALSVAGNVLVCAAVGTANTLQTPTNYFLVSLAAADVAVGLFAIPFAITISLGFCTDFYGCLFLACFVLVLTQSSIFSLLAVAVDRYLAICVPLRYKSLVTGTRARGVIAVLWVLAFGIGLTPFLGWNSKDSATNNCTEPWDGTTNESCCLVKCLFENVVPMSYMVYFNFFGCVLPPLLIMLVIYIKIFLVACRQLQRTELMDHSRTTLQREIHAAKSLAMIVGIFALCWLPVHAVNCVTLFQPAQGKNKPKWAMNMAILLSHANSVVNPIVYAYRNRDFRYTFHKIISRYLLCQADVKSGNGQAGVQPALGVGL

For the compound `Cc1c(Cn2[nH]ccc2=O)sc2c1c(=O)n(CC(F)(F)F)c(=O)n2CC1CCCO1` (single isomer, unassigned) [Example 286, 5-Methyl-6-[(5-oxo-2,5-dihydro-1H-pyrazol-1-yl)methyl]-1-(tetrahydrofuran-2-ylmethyl)-3-(2,2,2-trifluoroethyl)thieno[2,3-d]pyrimidine-2,4(1H,3H)-dione], the IC50 (usually the concentration that gives 50% inhibition) turned out to be 220 nM.

Consider `CCn1c(=O)c2c(C)c(Cn3nc[nH]c3=O)sc2n(CCCOC)c1=O` [Example 354, 3-Ethyl-1-(3-methoxypropyl)-5-methyl-6-[(5-oxo-4,5-dihydro-1H-1,2,4-triazol-1-yl)methyl]thieno[2,3-d]pyrimidine-2,4(1H,3H)-dione], for which the IC50 came to 120 nM. The result for `COCCn1c(=O)n(CCc2ccccc2)c(=O)c2c(C)c(CN3CCC3=O)sc21` [Example 1, 1-(2-Methoxyethyl)-5-methyl-6-[(2-oxoazetidin-1-yl)methyl]-3-(2-phenylethyl)thieno[2,3-d]pyrimidine-2,4(1H,3H)-dione] reads 9.7 nM; that for `[2H]C([2H])(c1sc2c(c1C)c(=O)n(CC(F)(F)F)c(=O)n2CCOC)N1CCNC1=O` [Example 500, 1-(2-Methoxyethyl)-5-methyl-6-[(2-oxoimidazolidin-1-yl)(dideutero)methyl]-3-(2,2,2-trifluoroethyl)thieno[2,3-d]pyrimidine-2,4(1H,3H)-dione], 10 nM.

Take `Cc1c(CN2CCNC2=O)sc2c1c(=O)n(CC(C)C)c(=O)n2CC1CCCO1` (single isomer, unassigned) [Example 198, 3-Isobutyl-5-methyl-6-[(2-oxoimidazolidin-1-yl)methyl]-1-(tetrahydrofuran-2-ylmethyl)thieno[2,3-d]pyrimidine-2,4(1H,3H)-dione]: the IC50 was 8.9 nM. For the compound `Cc1c(CN2CCNC2=O)sc2c1c(=O)n(CC(F)F)c(=O)n2CC1CCO1` (racemic) [Example 216, 3-(2,2-Difluoroethyl)-5-methyl-1-(oxetan-2-ylmethyl)-6-[(2-oxoimidazolidin-1-yl)methyl]thieno[2,3-d]pyrimidine-2,4(1H,3H)-dione], the IC50 was 34 nM. The value for `COCCn1c(=O)n(C(C)C(F)(F)F)c(=O)c2c(C)c(CN3CCNC3=NC#N)sc21` (racemic) [Example 452, [1-{[1-(2-Methoxyethyl)-5-methyl-2,4-dioxo-3-(1,1,1-trifluoropropan-2-yl)-1,2,3,4-tetrahydrothieno[2,3-d]pyrimidin-6-yl]methyl}imidazolidin-2-ylidene]cyanamide] was 14 nM; that for `CCn1c(=O)c2c(C)c(CN3CCNC3=NC#N)sc2n(CC2CCCO2)c1=O` (single isomer, unassigned) [Example 260, [1-{[3-Ethyl-5-methyl-2,4-dioxo-1-(tetrahydrofuran-2-ylmethyl)-1,2,3,4-tetrahydrothieno[2,3-d]pyrimidin-6-yl]methyl}imidazolidin-2-ylidene]cyanamide] was 2.2 nM. The value for `CCn1c(=O)c2c(C)c(CN3CCNC3=S)sc2n(CC2CCCO2)c1=O` (single isomer, unassigned) [Example 139, 3-Ethyl-5-methyl-1-(tetrahydrofuran-2-ylmethyl)-6-[(2-thioxoimidazolidin-1-yl)methyl]thieno[2,3-d]pyrimidine-2,4(1H,3H)-dione] was 2.8 nM.

`Cc1c(CN2CCNC(=O)C2=O)sc2c1c(=O)n(CC(C)(C)C)c(=O)n2CCCF` [Example 273, 3-(2,2-Dimethylpropyl)-6-[(2,3-dioxopiperazin-1-yl)methyl]-1-(3-fluoropropyl)-5-methylthieno[2,3-d]pyrimidine-2,4(1H,3H)-dione]: the IC50 is 19 nM. Regarding `CCn1c(=O)c2c(C)c(CN3CCNC(=O)C3=O)sc2n(CCOC2CC2)c1=O` [Example 270, 1-[2-(Cyclopropyloxy)ethyl]-6-[(2,3-dioxopiperazin-1-yl)methyl]-3-ethyl-5-methylthieno[2,3-d]pyrimidine-2,4(1H,3H)-dione], the IC50 was 38 nM. In the case of `COCCn1c(=O)c2c(C)c(CN3CCNC3=O)sc2n(CC2CCCO2)c1=O` (racemic) [Example 233, 3-(2-Methoxyethyl)-5-methyl-6-[(2-oxoimidazolidin-1-yl)methyl]-1-(tetrahydrofuran-2-ylmethyl)thieno[2,3-d]pyrimidine-2,4(1H,3H)-dione], the IC50 came out at 23 nM. Turning to `CCn1c(=O)c2c(C)c(CN3CCNC3=S)sc2n(CCS(C)(=O)=O)c1=O` [Example 295, 3-Ethyl-5-methyl-1-[2-(methylsulphonyl)ethyl]-6-[(2-thioxoimidazolidin-1-yl)methyl]thieno[2,3-d]pyrimidine-2,4(1H,3H)-dione], the IC50 was determined as 220 nM. On to `CCn1c(=O)c2c(C)c(CN3CCNC3=NC(=O)OC)sc2n(CC2CCO2)c1=O` (single isomer, unassigned) [Example 373, Methyl [1-{[3-ethyl-5-methyl-1-(oxetan-2-ylmethyl)-2,4-dioxo-1,2,3,4-tetrahydrothieno[2,3-d]pyrimidin-6-yl]methyl}imidazolidin-2-ylidene]carbamate], for which the IC50 turned out to be 5.9 nM. `CCn1c(=O)c2c(C)c(CN3CCNC3=O)sc2n(CCCC(F)(F)F)c1=O` [Example 49, 3-Ethyl-5-methyl-6-[(2-oxoimidazolidin-1-yl)methyl]-1-(4,4,4-trifluorobutyl)thieno[2,3-d]pyrimidine-2,4(1H,3H)-dione]: the IC50 was 2.5 nM. The value for `COCCn1c(=O)n(C(C)C(F)(F)F)c(=O)c2c(C)c(CN3CCNC3=NC#N)sc21` (single isomer, unassigned) [Example 511, [1-{[1-(2-Methoxyethyl)-5-methyl-2,4-dioxo-3-(1,1,1-trifluoropropan-2-yl)-1,2,3,4-tetrahydrothieno[2,3-d]pyrimidin-6-yl]methyl}imidazolidin-2-ylidene]cyanamide] was 110 nM; that for `COCCn1c(=O)n(C(C)C(F)(F)F)c(=O)c2c(C)c(CN3CCNC3=NC#N)sc21` (single isomer, unassigned) [Example 510, [1-{[1-(2-Methoxyethyl)-5-methyl-2,4-dioxo-3-(1,1,1-trifluoropropan-2-yl)-1,2,3,4-tetrahydrothieno[2,3-d]pyrimidin-6-yl]methyl}imidazolidin-2-ylidene]cyanamide] was 47 nM; that for `C=C(Cn1c(=O)n(CC)c(=O)c2c(C)c(CN3CCNC3=O)sc21)C(F)(F)F` [Example 53, 3-Ethyl-5-methyl-6-[(2-oxoimidazolidin-1-yl)methyl]-1-[2-(trifluoromethyl)prop-2-en-1-yl]thieno[2,3-d]pyrimidine-2,4(1H,3H)-dione] was 14 nM. The value for `CCOCCn1c(=O)c2c(C)c(CN3CCNC3=O)sc2n(CCOC)c1=O` [Example 327, 3-(2-Ethoxyethyl)-1-(2-methoxyethyl)-5-methyl-6-[(2-oxoimidazolidin-1-yl)methyl]thieno[2,3-d]pyrimidine-2,4(1H,3H)-dione] was 40 nM; that for `CCn1c(=O)c2c(C(F)F)c(CN3CCNC3=O)sc2n(CCOC)c1=O` [Example 101, 5-(Difluoromethyl)-3-ethyl-1-(2-methoxyethyl)-6-[(2-oxoimidazolidin-1-yl)methyl]thieno[2,3-d]pyrimidine-2,4(1H,3H)-dione] was 12 nM; that for `CCSCCn1c(=O)n(CC)c(=O)c2c(C)c(CN3CCNC3=O)sc21` [Example 309, 3-Ethyl-1-[2-(ethylsulphanyl)ethyl]-5-methyl-6-[(2-oxoimidazolidin-1-yl)methyl]thieno[2,3-d]pyrimidine-2,4(1H,3H)-dione] was 36 nM.

As to `[2H]C([2H])(c1sc2c(c1C)c(=O)n([C@H](C)C(F)(F)F)c(=O)n2CCOC)N1CCNC1=O` [Example 501, 1-(2-Methoxyethyl)-5-methyl-6-[(2-oxoimidazolidin-1-yl)(dideutero)methyl]-3-[(2R)-1,1,1-trifluoropropan-2-yl]thieno[2,3-d]pyrimidine-2,4(1H,3H)-dione], the IC50 turned out to be 43 nM. For the compound `CCCn1cnn(Cc2sc3c(c2C)c(=O)n(CC)c(=O)n3CCC(F)(F)F)c1=O` [Example 355, 3-Ethyl-5-methyl-6-[(5-oxo-4-propyl-4,5-dihydro-1H-H-1,2,4-triazol-1-yl)methyl]-1-(3,3,3-trifluoropropyl)thieno[2,3-d]pyrimidine-2,4(1H,3H)-dione], the IC50 came out at 99 nM.

Consider `CCn1c(=O)c2c(C)c(CN3C(=O)CCC3C)sc2n(CCC(F)(F)F)c1=O` (racemic) [Example 10, 3-Ethyl-5-methyl-6-[(2-methyl-5-oxopyrrolidin-1-yl)methyl]-1-(3,3,3-trifluoropropyl)thieno[2,3-d]pyrimidine-2,4(1H,3H)-dione (racemate)], for which the 50% inhibitory concentration (IC50) came out at 7 nM. The result for `COC(C)(C)Cn1c(=O)c2c(C)c(CN3CCN(C)C3=O)sc2n(CCC(F)(F)F)c1=O` [Example 338, 3-(2-Methoxy-2-methylpropyl)-5-methyl-6-[(3-methyl-2-oxoimidazolidin-1-yl)methyl]-1-(3,3,3-trifluoropropyl)thieno[2,3-d]pyrimidine-2,4(1H,3H)-dione] reads 120 nM.

Take `CCn1c(=O)c2c(C)c(CN3CCNC3=NC(=O)OC)sc2n(CCOC)c1=O` (single isomer, unassigned) [Example 119, Methyl [1-{[3-ethyl-1-(2-methoxyethyl)-5-methyl-2,4-dioxo-1,2,3,4-tetrahydrothieno[2,3-d]pyrimidin-6-yl]methyl}imidazolidin-2-ylidene]carbamate]: the IC50 came out at 2.7 nM.

As for `COC(=O)N=C1NCCN1Cc1sc2c(c1C)c(=O)n(C(C)C)c(=O)n2CC1CCCO1` (single isomer, unassigned) [Example 459, Methyl [1-{[3-isopropyl-5-methyl-2,4-dioxo-1-(tetrahydrofuran-2-ylmethyl)-1,2,3,4-tetrahydrothieno[2,3-d]pyrimidin-6-yl]methyl}imidazolidin-2-ylidene]carbamate], the IC50 turned out to be 4.9 nM.
